# According to US11406649B2, “Treatment of upper aerodigestive tract disorders and cough” (IVIEW THERAPEUTICS, INC., priority 2018, dated 2022):
# Entries after “also recorded” stand apart in the source; their conditions may differ.
# Columns and labels:
# [1] = system: oropharynx and esophagus; experiment: Sensory events and cold discomfort of compounds on throat, chest and body; settings: for taste: oral cavity / tongue
# Source text: The terms “icy cold” is used to describe this adverse event in the throat.
# Most likely, the compound rapidly distributed and activated cold sensations in the eosophageal lining.
# [2] = system: respiratory syncytial virus (RSV) induced cough; experiment: Mouse cough model of respiratory syncytial virus infection; type: in vivo; settings: 0.5 mg in 25 μL intranasally per mouse, 10 min before count
# [3] = system: Oral Cavity and Pharynx; experiment: Sensory qualities of compounds in syrup applied to base of tongue of volunteers; type: in vivo, human; settings: concentration increased to 15 mg/mL, 0.8 mL per dose
# [4] = system: oral cavity; experiment: DIPA-1-9 sprayed into the mouth with aerosol sprayer
# [5] = system: anesthetized rat; experiment: In vivo transdermal activity: shaking after topical application to abdominal skin of anesthetized rat; settings: pure compound 20 μL on abdominal skin, counted 40 min
# Experimental: Shaking frequency was counted for 40 min after topical application.
# The importance of water solubility for permeation was further illustrated in studies on the abdominal skin of anesthetized rat. […] The pharmacokinetic determinants of bioactivity are precise. Thus, for the avoidance of cold discomfort, DIPA-1-9 has to reach the receptors in the stratum basale but not “over-stimulate”.
# [6] = target: cloned hTRPM8 channel (Homo sapiens (Human), UniProt Q7Z2W7); experiment: TRPM8 agonist activity, Fluo-8 calcium FLIPR assay (ChanTest); type: cell-based; settings: L-menthol = 1.0
# Experimental: In the first set of data, the potency and in vitro effects of test compounds were evaluated on cloned hTRPM8 channel (encoded by the human TRPM8 gene, expressed in CHO cells) using a Fluo-8 calcium kit and a Fluorescence Imaging Plate Reader (FLIPR^TETRA™) instrument. […] Test solutions were in a HEPES-buffered saline, in 384-well plates, and placed into the FLIPR instrument (Molecular Devices Corporation, Union City, Calif., USA). […] The test cells were Chinese Hamster Ovary (CHO) cells stably transfected with human TRPM8 cDNAs. Concentration-response data were analyzed via FLIPR Control software) and fitted to a Hill equation for the EC50.
# [7] = Water solubility of 1-dialkylphosphorylalkanes; type: physicochemical
# Source text: The DIPA compounds are colorless liquids with a density less than water. These structures differ from those described by Rowsell and Spring U.S. Pat. No. 4,070,496 because '496 structures have their “head” (phosphine oxide group) covered by larger, more lipophilic groups. […] The applicant synthesized these analogs (which are achiral, by contrast to the structures of '496 which are >95% chiral). […] This increased water-solublility is striking (Table 3). […] The DIPA analogs are now mobile in the extracellular fluids and permeate between cells to access nerve endings in the stratum basale.
# [8] = target: TRPV1 channels (human TRPV1 gene expressed in HEK293 cells) (Homo sapiens (Human), UniProt Q8NER1); experiment: Selectivity on TRPV1 channels; type: cell-based; settings: positive control capsaicin
# Source text: (§1) In a third set, the selectivity of the test compounds on TRPM8, TRPV1 channels (human TRPV1 gene expressed in HEK293 cells) and TRPA1 channels (human TRPA1 gene expressed in CHO cells) were examined.
# (§2) The selectivity of DIPA-1-9 on TRP channel receptors, TRPM8, TRPA1 and TRPV1 is shown in FIG. 3 of Yang et. al. A novel TRPM8 agonist relieves dry eye discomfort. BMC Ophthalmology ([…]) 17: 101, and incorporated herein by reference. The applicant is a co-author of this publication.
# [9] = target: TRPA1 channels (human TRPA1 gene expressed in CHO cells) (Homo sapiens (Human), UniProt O75762); experiment: Selectivity on TRPA1 channels; type: cell-based; settings: positive control mustard oil
# Source text: as §1, §2
# [10] = system: anesthetized rat; experiment: Blood pressure and heart rate after subcutaneous injection in anesthetized rat; type: in vivo; settings: injected subcutaneously
# [11] = system: capsaicin induced coughing; experiment: Capsaicin induced coughing in an animal model; settings: in vivo
# [12] = system: eyelids of patients with dry eye disorder; experiment: Application to eyelids of patients with dry eye disorder; type: in vivo, human
# [13] = system: rat skin; experiment: Skin irritation tests on rat skin; type: in vivo; design: key to Redness after 20 μL applied topically to skin (scale of 0 to +++): scale of 0 to +++; scale of 0 to +++; scale of 0 to +++; scale of 0 to +++
# [14] = system: upper aerodigestive tract discomfort; experiment: Case studies of DIPA-1-9 syrup in volunteers with upper aerodigestive tract discomfort; type: in vivo, human
# Source text: The rationale and data set for selecting DIPA-1-9 in syrup as a treatment agent for upper aerodigestive discomfort have been described. […] The coolness spreads to the rest of throat and intensifies, as if a spoonful of rich ice cream had been swallowed. […] The cooling sensation can be used to facilitate mucus expectoration from the airways. Also relieved is the sense of suffocation when lying down to sleep in a subject that has dyspnea.
# [15] = system: Oral Cavity and Pharynx; experiment: Sensory qualities of compounds in syrup applied to base of tongue of volunteers; type: in vivo, human
# Experimental: The DIPA compounds was 5 mg/mL in cherry-flavored syrup in a volume of 0.8 mL per dose. The sensory effect were recorded every 5 min for 1 hr.
# Tests were on four volunteers, with 3 to 5 trials per substance. Compounds were prepared in cherry-flavored syrup at 5 mg/mL and administered ˜0.8 mL per dose with a 2 mL plastic vial to the base of the tongue. The subjects asked to rate the sensations for cooling intensity, cold discomfort and adverse taste.
# The concentration of the DIPA compounds was 5 mg/mL in cherry-flavored syrup administered in a volume of 0.8 mL per dose. The sensory effect were recorded every 5 min for 1 hr.
# [16] = 10 subjects with cough, sprayer 5 mg/mL cherry syrup, 1 week
# [17] = 5 mg/mL in cherry-flavored syrup, ~0.8 mL
# Sequence of TRPA1 channels (human TRPA1 gene expressed in CHO cells) (O75762 whole entry): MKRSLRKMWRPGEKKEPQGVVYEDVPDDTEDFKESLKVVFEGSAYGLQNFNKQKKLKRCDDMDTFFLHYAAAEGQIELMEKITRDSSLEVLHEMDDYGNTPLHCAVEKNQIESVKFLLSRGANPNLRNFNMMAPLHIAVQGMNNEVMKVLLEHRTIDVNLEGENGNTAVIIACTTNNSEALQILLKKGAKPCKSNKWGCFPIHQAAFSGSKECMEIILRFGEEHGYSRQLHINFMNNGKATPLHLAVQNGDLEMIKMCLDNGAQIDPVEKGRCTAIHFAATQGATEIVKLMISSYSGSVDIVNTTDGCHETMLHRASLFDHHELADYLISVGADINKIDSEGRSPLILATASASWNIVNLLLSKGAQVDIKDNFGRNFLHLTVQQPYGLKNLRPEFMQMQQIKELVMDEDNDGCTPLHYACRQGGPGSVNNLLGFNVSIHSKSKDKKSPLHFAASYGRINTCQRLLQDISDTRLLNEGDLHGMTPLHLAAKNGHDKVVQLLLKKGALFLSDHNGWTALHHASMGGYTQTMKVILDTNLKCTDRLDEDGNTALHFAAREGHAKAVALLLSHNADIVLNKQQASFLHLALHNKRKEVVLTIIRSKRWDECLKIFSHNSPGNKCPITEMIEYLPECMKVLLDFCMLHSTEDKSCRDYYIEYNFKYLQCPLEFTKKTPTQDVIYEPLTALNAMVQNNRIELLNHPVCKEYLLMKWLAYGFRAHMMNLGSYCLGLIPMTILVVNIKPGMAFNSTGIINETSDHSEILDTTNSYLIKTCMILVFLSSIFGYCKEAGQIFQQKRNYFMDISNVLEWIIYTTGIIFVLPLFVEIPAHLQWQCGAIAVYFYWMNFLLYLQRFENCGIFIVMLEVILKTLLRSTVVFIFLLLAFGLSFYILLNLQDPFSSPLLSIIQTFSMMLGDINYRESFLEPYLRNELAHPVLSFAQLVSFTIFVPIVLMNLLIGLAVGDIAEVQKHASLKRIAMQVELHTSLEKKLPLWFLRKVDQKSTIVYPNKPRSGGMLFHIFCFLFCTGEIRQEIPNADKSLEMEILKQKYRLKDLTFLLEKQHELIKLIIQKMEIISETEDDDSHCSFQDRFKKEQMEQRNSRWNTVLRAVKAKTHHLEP
# Sequence of TRPV1 channels (human TRPV1 gene expressed in HEK293 cells) (Q8NER1 whole entry): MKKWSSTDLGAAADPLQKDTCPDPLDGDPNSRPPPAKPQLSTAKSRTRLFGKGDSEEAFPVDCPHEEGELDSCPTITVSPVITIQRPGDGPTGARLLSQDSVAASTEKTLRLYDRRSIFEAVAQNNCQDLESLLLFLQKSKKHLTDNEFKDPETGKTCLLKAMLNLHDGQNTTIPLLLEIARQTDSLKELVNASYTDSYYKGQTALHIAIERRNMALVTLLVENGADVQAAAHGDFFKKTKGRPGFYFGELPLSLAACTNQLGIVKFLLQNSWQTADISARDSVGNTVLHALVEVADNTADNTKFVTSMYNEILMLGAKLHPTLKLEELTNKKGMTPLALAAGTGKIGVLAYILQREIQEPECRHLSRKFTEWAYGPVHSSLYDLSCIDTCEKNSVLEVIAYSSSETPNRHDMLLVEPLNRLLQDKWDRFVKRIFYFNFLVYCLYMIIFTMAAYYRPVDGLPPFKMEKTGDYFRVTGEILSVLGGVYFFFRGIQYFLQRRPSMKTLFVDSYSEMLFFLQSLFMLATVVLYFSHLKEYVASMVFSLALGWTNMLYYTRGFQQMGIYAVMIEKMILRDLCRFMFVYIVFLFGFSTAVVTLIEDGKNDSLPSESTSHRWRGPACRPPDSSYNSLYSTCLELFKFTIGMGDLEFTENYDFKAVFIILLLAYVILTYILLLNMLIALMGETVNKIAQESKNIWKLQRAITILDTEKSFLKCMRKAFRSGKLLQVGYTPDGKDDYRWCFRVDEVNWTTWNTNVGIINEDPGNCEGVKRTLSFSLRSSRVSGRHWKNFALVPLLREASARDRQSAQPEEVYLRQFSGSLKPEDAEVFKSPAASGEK
# Sequence of cloned hTRPM8 channel (Q7Z2W7 whole entry): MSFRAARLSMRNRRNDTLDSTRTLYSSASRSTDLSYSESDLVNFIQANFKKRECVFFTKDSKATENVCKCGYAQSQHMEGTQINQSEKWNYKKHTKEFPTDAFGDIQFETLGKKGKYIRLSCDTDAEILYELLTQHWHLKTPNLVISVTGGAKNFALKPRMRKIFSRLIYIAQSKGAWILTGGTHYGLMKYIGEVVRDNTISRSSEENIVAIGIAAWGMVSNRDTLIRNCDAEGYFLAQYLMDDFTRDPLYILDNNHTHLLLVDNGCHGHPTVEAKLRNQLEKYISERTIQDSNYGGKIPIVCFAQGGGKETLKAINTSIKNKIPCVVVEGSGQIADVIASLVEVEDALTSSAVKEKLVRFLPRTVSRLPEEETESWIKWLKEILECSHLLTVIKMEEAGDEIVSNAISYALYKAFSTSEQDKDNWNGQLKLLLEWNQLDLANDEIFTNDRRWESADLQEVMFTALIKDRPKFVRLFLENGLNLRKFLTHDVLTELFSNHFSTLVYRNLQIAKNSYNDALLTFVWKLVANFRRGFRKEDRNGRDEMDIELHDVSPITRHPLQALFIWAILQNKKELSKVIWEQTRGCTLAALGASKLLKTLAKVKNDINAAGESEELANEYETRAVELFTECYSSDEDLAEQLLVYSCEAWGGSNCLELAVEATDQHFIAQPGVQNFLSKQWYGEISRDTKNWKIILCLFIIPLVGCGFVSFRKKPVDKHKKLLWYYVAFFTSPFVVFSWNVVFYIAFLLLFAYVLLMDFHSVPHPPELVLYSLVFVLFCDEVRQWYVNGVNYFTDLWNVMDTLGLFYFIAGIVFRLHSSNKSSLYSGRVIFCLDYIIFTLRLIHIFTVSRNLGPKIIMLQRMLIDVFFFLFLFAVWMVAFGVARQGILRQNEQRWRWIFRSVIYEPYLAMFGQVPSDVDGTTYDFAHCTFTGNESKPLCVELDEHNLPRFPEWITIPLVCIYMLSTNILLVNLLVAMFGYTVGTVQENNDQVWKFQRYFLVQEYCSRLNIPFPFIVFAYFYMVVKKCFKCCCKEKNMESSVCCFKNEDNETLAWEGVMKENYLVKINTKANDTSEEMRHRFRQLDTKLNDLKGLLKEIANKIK
structure (smiles),measurement,setting,value
"CCCCCCCCCP(=O)(C(C)C)C(C)C [DIPA-1-9, 1-Di(isopropyl)-phosphinoyl-nonane]",icy cold / pain in throat,[1]; DIPA-1-9 up to 12 mg per unit,not seen; also recorded: did not produce stinging
same,taste,[1],did not have significant adverse taste
same,taste,[1]; listed as DIPA1-9,does not have a strong metallic taste
same,cough frequency,[2],significantly inhibited cough frequency
same,pain or discomfort at increased concentration,[3],did not produce icy cold or pain
same,taste,[4]; 10 mg/mL spray,slight taste of bitterness
same,persistence of sensation of cooling,"[4]; 10 mg/mL spray, contents spat out",≥ 1 h
same,cooling of oral cavity,"[4]; 10 mg/mL, 0.07 mL per activation, 3 activations",robust cooling of the oral cavity
same,shaking after topical application,[5],not active
same,Relative Potency to L-menthol,[6],4.0
same,water solubility relative to prior art / di-sec-butyl or mixed isopropyl-sec-butyl analogs,[7],10 ×
same,solubility,[7]; water,> 300 mg/mL
same,activity on TRPV1 (selectivity),[8],selective for TRPM8 and not TRPVI and TRPA1; also recorded: not on TRPV1 or TRPA1 receptors
same,activity on TRPA1 (selectivity),[9],selective for TRPM8 and not TRPVI and TRPA1; also recorded: not on TRPV1 or TRPA1 receptors
same,effect on blood pressure or heart rate,[10],did not affect blood pressure or heart rate
same,capsaicin induced coughing,[11],inhibited capsaicin induced coughing
same,irritation of eyelids,[12],not to be irritating
same,inflammatory response,"[13]; pure compound, 20 μL, abdominal skin of anesthetized rat",did not cause significant inflammatory response
same,Redness after 20 μL applied topically to skin (scale of 0 to +++),"[13]; rat skin, 20 μL",0
same,irritation of shaved rat skin,[13]; up to 20 mg/mL,not to be irritating
same,discomfort of satiety,"[14]; 8 mg/mL in simple syrup, three over-weight individuals",instantly relieved
same,chronic cough outcome (cough variant asthma cases),"[14]; 8 mg/mL in syrup, 1 mL vials as needed",the coughing problem had disappeared; also recorded: the cough was gone
same,subjects reporting not effective,[14]; [16],3
same,subjects reporting partially effective,[14]; [16],4
same,subjects reporting very effective,[14]; [16],3
same,residual antinociceptive effect duration,[14]; application to the throat,3 h
same,time to decrease in cough frequency,"[14]; person, 8 mg/mL in cherry-flavored syrup",≤ 3 days
same,Adverse Taste,[15]; [17],0
same,Discomfort,[15]; [17],0
same,Sensation,[15]; [17],cool
same,persistence of general sense of refreshment in the throat,"[15]; human, in vivo",≥ 3 h
